Assay results reported in US7547806B2, “Tannate salt of rasagiline” (Teva Pharmaceutical Industries, Ltd., priority 2006, dated 2009).

Tests used:
Type in all cases: physicochemical
[1] = Water content by Karl Fischer method (KF); settings: solid product
Experimental: (§1) Thermal gravimetric analysis (TGA) was applied for measuring amounts of volatiles (residual solvents and water) in the solid. Water content was measured by Karl Fischer method (KF).

[2] = Hygroscopicity after one month storage in closed containers; set-up: key: 1: non-hygroscopic, no visible change observed; 2: slightly hygroscopic, aggregation and lumping developed, loss of flowability; 3: hygroscopic, semi-solid material; 4: deliquescent, liquefied syrup-like product; settings: after one month in closed containers at room temperature in atmospheric air (relative humidity ~50-80%)
Experimental: The hygroscopicity was determined after one month in closed containers at room temperature in atmospheric air (relative humidity ˜50-80%)
The observed samples could be divided into four groups in accordance to their hygroscopic properties:
1=non-hygroscopic, no visible change observed
2=slightly hygroscopic, aggregation and lumping developed, loss of flowability
3=hygroscopic, semi-solid material
4=deliquescent, liquefied syrup-like product

[3] = Water content by thermal gravimetric analysis (TGA); settings: solid product
Experimental: as §1

- Water content, % By KF [1]: 0.1%
- Hygroscopicity [2]: 1
- Water content, % By TGA [3]: < 0.1%
SMILES: C#CCN[C@@H]1CCc2ccccc21 [Rasagiline base, R(+)-N-propargyl-l-aminoindan]
